{"source": "patent US20230293539A1", "about": "“MLL1-WDR5 PROTEIN-PROTEIN INTERACTION INHIBITOR COMPOUNDS AND USES THEREOF” (HUYABIO International, LLC, priority 2022, published 2023)", "assay": "PK profile of HBI-2375 in plasma, brain and CSF in SD rats", "assay_type": "in vivo", "conditions": "for AUC(0-t) / Cmax / MRT last / Tmax / Kp: rat; for Kp: po, 40 mg/kg, read-out: AUClast Ratio Tissue/Plasma", "description": "EXAMPLE 3: PK profile of HBI-2375 (compound of Formula (IIIb) (HYBI-084) in plasma, brain, and cerebrospinal fluid (CSF) in SD rats: This study was conducted in accordance with the Study Protocol and Pharmaron (Ningbo) TSP's Standard Operating Procedures (SOPs) following all regulatory protocols. This study was conducted under non-GLP environment.\nThe maximal concentrations of HBI-2375 in CSF for males and females were at 1 hr post-dose. The maximal concentrations of HBI-2375 in brain were at 15 min post-dose for males and at 1 hr post-dose for females. The mean values of AUClast for HBI-2375 from high to low were: brain>plasma>CSF for males, and plasma>brain>CSF for females.\nFollowing a single oral gavage administration of HBI-2375 at 40 mg/kg in SD rats, concentrations of HBI-2375 in plasma, brain, and CSF were determined by LC-MS/MS methods. […] The maximal concentrations of HBI-2375 in CSF for males and females were at 1 hr post-dose. The maximal concentrations of HBI-2375 in brain were at 15 min post-dose for males and at 1 hr post-dose for females.", "key": {"[1]": {"conditions": "Sprague-Dawley, SD rats, single PO 40 mg/kg, CSF, female"}, "[2]": {"conditions": "Sprague-Dawley, SD rats, single PO 40 mg/kg, CSF, male"}, "[3]": {"conditions": "Sprague-Dawley, SD rats, single PO 40 mg/kg, brain, female"}, "[4]": {"conditions": "Sprague-Dawley, SD rats, single PO 40 mg/kg, brain, male"}, "[5]": {"conditions": "Sprague-Dawley, SD rats, single PO 40 mg/kg, plasma, female"}, "[6]": {"conditions": "Sprague-Dawley, SD rats, single PO 40 mg/kg, plasma, male"}, "[7]": {"conditions": "both sexes, SD rats, single PO 40 mg/kg, brain, mean of male and female"}, "[8]": {"conditions": "both sexes, SD rats, single PO 40 mg/kg, plasma, mean of male and female"}}, "note": "Read-outs that look alike come from different tables or passages of the source.", "data": [{"smiles": "Cc1c(F)c(N)cc(C(=O)Nc2cc(-n3cc(C(=O)N4CCN(C)CC4)nn3)c(F)cc2N2C[C@@H](C)N(C)[C@@H](C)C2)c1Cl", "note": "[HYBI-084, 5-amino-2-chloro-4-fluoro-N-(4-fluoro-5-(4-(4-methylpiperazine-1-carbonyl)-1H-1,2,3-triazol-1-yl)-2-((3S,5R)-3,4,5-trimethylpiperazin-1-yl)phenyl)-3-methylbenzamide]", "values": [{"measurement": "AUClast Ratio Female/Male", "setting": "SD rats, 40 mg/kg PO, CSF", "value": 6.66}, {"measurement": "C24hr/Cmax Ratio (%)", "setting": "SD rats, 40 mg/kg PO, CSF, female", "value": 11.6, "unit": "%"}, {"measurement": "AUClast Ratio Tissue/Plasma", "setting": "SD rats, 40 mg/kg PO, CSF/plasma, male, listed as HBI-2375, 40 mg/kg", "value": 0.0111}, {"measurement": "AUClast Ratio Female/Male", "setting": "SD rats, 40 mg/kg PO, brain", "value": 1.54}, {"measurement": "C24hr/Cmax Ratio (%)", "setting": "SD rats, 40 mg/kg PO, brain, female", "value": 3.24, "unit": "%"}, {"measurement": "C24hr/Cmax Ratio (%)", "setting": "SD rats, 40 mg/kg PO, brain, male", "value": 4.18, "unit": "%"}, {"measurement": "AUClast from high to low", "setting": "SD rats, 40 mg/kg PO, females", "value": "plasma>brain>CSF"}, {"measurement": "AUClast from high to low", "setting": "SD rats, 40 mg/kg PO, males", "value": "brain>plasma>CSF"}, {"measurement": "AUClast Ratio Female/Male", "setting": "SD rats, 40 mg/kg PO, plasma", "value": 2.18}, {"measurement": "C24hr/Cmax Ratio (%)", "setting": "SD rats, 40 mg/kg PO, plasma, female", "value": 1.17, "unit": "%"}, {"measurement": "C24hr/Cmax Ratio (%)", "setting": "SD rats, 40 mg/kg PO, plasma, male", "value": 0.697, "unit": "%"}, {"measurement": "distribution", "setting": "SD rats, single PO 40 mg/kg", "value": "distributed to CSF and brain"}, {"measurement": "duration of exposure in CSF and brain", "setting": "SD rats, single PO 40 mg/kg", "value": 24, "unit": "h"}, {"measurement": "in-life observations", "setting": "SD rats, single PO 40 mg/kg", "value": "no abnormalities were observed"}, {"measurement": "AUClast", "setting": "SD rats, single PO 40 mg/kg, brain, female", "value": 3394, "unit": "ng·h/g"}, {"measurement": "AUClast", "setting": "SD rats, single PO 40 mg/kg, brain, male", "value": 2199, "unit": "ng·h/g"}, {"measurement": "time of maximal concentration", "setting": "SD rats, single PO 40 mg/kg, brain, males", "value": 15, "unit": "min"}, {"measurement": "AUClast", "setting": "SD rats, single PO 40 mg/kg, brain, mean of male and female", "value": 2796, "unit": "ng·h/g"}, {"measurement": "concentration at 24 h", "setting": "SD, brain, Single PO Rat 40 mg/kg, read-out: Mean Brain Concentration, Cmin = 24 h", "value": 22.1, "unit": "ng/g"}, {"measurement": "AUC(0-t)", "setting": "[1]", "value": 124, "unit": "ng·h/mL"}, {"measurement": "Cmax", "setting": "[1]", "value": 24, "unit": "ng/mL"}, {"measurement": "MRT last", "setting": "[1]", "value": 8.41, "unit": "h"}, {"measurement": "Tmax", "setting": "Sprague-Dawley, SD rats, single PO 40 mg/kg, CSF, female, read-out: Tmax", "value": 60, "unit": "min"}, {"measurement": "AUC(0-t)", "setting": "[2]", "value": 18.6, "unit": "ng·h/mL"}, {"measurement": "Cmax", "setting": "[2]", "value": 7.48, "unit": "ng/mL"}, {"measurement": "MRT last", "setting": "[2]", "value": 2, "unit": "h"}, {"measurement": "Tmax", "setting": "Sprague-Dawley, SD rats, single PO 40 mg/kg, CSF, male, read-out: Tmax", "value": 60, "unit": "min"}, {"measurement": "Cmax", "setting": "[3]", "value": 833, "unit": "ng/g"}, {"measurement": "MRT last", "setting": "[3]", "value": 5.81, "unit": "h"}, {"measurement": "Tmax", "setting": "Sprague-Dawley, SD rats, single PO 40 mg/kg, brain, female, read-out: Tmax", "value": 60, "unit": "min"}, {"measurement": "Cmax", "setting": "[4]", "value": 413, "unit": "ng/g"}, {"measurement": "MRT last", "setting": "[4]", "value": 7, "unit": "h"}, {"measurement": "AUC(0-t)", "setting": "[5]", "value": 3660, "unit": "ng·h/mL"}, {"measurement": "Cmax", "setting": "[5]", "value": 934, "unit": "ng/mL"}, {"measurement": "MRT last", "setting": "[5]", "value": 5.11, "unit": "h"}, {"measurement": "AUC(0-t)", "setting": "[6]", "value": 1680, "unit": "ng·h/mL"}, {"measurement": "Cmax", "setting": "[6]", "value": 544, "unit": "ng/mL"}, {"measurement": "MRT last", "setting": "[6]", "value": 4.5, "unit": "h"}, {"measurement": "Tmax", "setting": "both sexes, Sprague-Dawley, SD rats, single PO 40 mg/kg, plasma, males and females, read-out: Tmax (time of maximal concentration) (converted)", "value": 15, "unit": "min"}, {"measurement": "Cmax", "setting": "[7]", "value": 623, "unit": "ng/g"}, {"measurement": "MRT last", "setting": "[7]", "value": 6.4, "unit": "h"}, {"measurement": "AUC(0-t)", "setting": "[8]", "value": 2670, "unit": "ng·h/mL"}, {"measurement": "Cmax", "setting": "[8]", "value": 739, "unit": "ng/mL"}, {"measurement": "MRT last", "setting": "[8]", "value": 4.8, "unit": "h"}, {"measurement": "Kp", "setting": "female, Sprague-Dawley, CSF/plasma, SD rats, 40 mg/kg PO, CSF/plasma, female", "value": 0.0338}, {"measurement": "Kp", "setting": "female, Sprague-Dawley, brain/plasma, SD rats, 40 mg/kg PO, brain/plasma, female", "value": 0.928}, {"measurement": "AUC(0-t)", "setting": "female, Sprague-Dawley, SD rats, single PO 40 mg/kg, brain, females", "value": 3390, "unit": "ng·h/mL"}, {"measurement": "crossing of the blood-brain barrier", "setting": "general statement", "value": "can cross the blood-brain barrier"}, {"measurement": "Kp", "setting": "male, Sprague-Dawley, CSF/plasma, SD rats, 40 mg/kg PO, CSF/plasma, male", "value": 0.011}, {"measurement": "Kp", "setting": "male, Sprague-Dawley, brain/plasma, SD rats, 40 mg/kg PO, brain/plasma, male", "value": 1.31}, {"measurement": "AUC(0-t)", "setting": "male, Sprague-Dawley, SD rats, single PO 40 mg/kg, brain, males", "value": 2200, "unit": "ng·h/mL"}, {"measurement": "Tmax", "setting": "SD rats, single PO 40 mg/kg, brain, male, read-out: Tmax", "value": 15, "unit": "min"}, {"measurement": "Tmax", "setting": "SD rats, single PO 40 mg/kg, plasma, female, read-out: Tmax", "value": 15, "unit": "min"}, {"measurement": "Tmax", "setting": "SD rats, single PO 40 mg/kg, plasma, male, read-out: Tmax", "value": 15, "unit": "min"}]}]}
